Measurements: ChEMBL document CHEMBL2439958, “Inhibitory effect of oxygenated cholestan-3β-ol derivatives on the growth of Mycobacterium tuberculosis” (Bioorg Med Chem Lett, 2013)
Converted amounts (≈) assume the structure as drawn.

Key:
[1] = tested on: Mycobacterium tuberculosis; assay: microbe, parasite or virus in culture; type: functional; settings: H37Rv
[2] = Selectivity index, ratio of IC50 for african green monkey Vero cells to MIC90 for Mycobacterium tuberculosis H37Rv; type: functional
Vero = assay: Cytotoxicity against african green monkey Vero cells by tetrazolium dye reduction assay; type: ADME, cell-based; settings: Chlorocebus sabaeus

C[C@H](CCCC(C)(C)O)[C@H]1CC[C@H]2[C@@H]3[C@H](O)C[C@H]4C[C@@H](O)CC[C@]4(C)[C@H]3CC[C@]12C
MIC90 [1]: > 128 µM

CC(C)CCC[C@@H](C)[C@H]1CC[C@H]2[C@@H]3[C@H](F)[C@@H](O)[C@H]4C[C@@H](O)CC[C@]4(C)[C@H]3CC[C@]12C
Selectivity Index [2]: <0.4
IC50 (Vero): 41 µM
MIC90 [1]: > 128 µM

C[C@@H]1CC[C@@]2(OC1)O[C@H]1C[C@H]3[C@@H]4CC=C5C[C@@H](O)CC[C@]5(C)[C@H]4CC[C@]3(C)[C@H]1[C@@H]2C [DISOGENIN]
MIC90 [1]: > 128 µM

CC(C)CCC[C@@H](C)[C@H]1CC[C@H]2[C@@H]3CC(=O)[C@H]4C[C@@H](O)CC[C@]4(C)[C@H]3CC[C@]12C [5alpha-CHOLESTAN-3beta-OL-6-ONE]
Selectivity Index [2]: 15.3
IC50 (Vero): 92 µM
MIC90 [1]: 6 µM (≈ 2.42 µg/mL)

CC(C)CCC[C@@H](C)[C@H]1CC[C@H]2[C@@H]3CC(=O)[C@H]4C[C@@H](O[Si](C)(C)C)CC[C@]4(C)[C@H]3CC[C@]12C
Selectivity Index [2]: 10.9
IC50 (Vero): 38 µM
MIC90 [1]: 3.5 µM (≈ 1.66 µg/mL)

CC(=O)O[C@H]1CC[C@@]2(C)C(=CC[C@H]3[C@@H]4CC[C@H]([C@H](C)CCCC(C)(C)O)[C@@]4(C)CC[C@@H]32)C1
MIC90 [1]: > 128 µM

CC(=O)O[C@H]1CC[C@@]2(C)C(=CC(=O)[C@H]3[C@@H]4CC[C@H]([C@H](C)CCCC(C)(C)O)[C@@]4(C)CC[C@@H]32)C1
IC50 (Vero): > 128 µM
MIC90 [1]: > 128 µM

C[C@@H](CO)CCC[C@@H](C)[C@H]1CC[C@H]2[C@@H]3CC=C4C[C@@H](O)CC[C@]4(C)[C@H]3CC[C@]12C
MIC90 [1]: > 128 µM

CC(=O)O[C@H]1CC[C@@]2(C)[C@@H](CC(=O)[C@@H]3[C@@H]2CC[C@]2(C)[C@@H]([C@H](C)CCCC(C)C)CC[C@@H]32)C1
IC50 (Vero): > 128 µM
MIC90 [1]: > 128 µM

CC(=O)O[C@H]1CC[C@@]2(C)C(=CC(=O)[C@H]3[C@@H]4CC[C@H]([C@H](C)CCCC(C)C)[C@@]4(C)CC[C@@H]32)C1 [7-OXOCHOLESTERYL ACETATE]
IC50 (Vero): > 128 µM
MIC90 [1]: > 128 µM

CC(C)CCC[C@@H](C)[C@H]1CC[C@H]2[C@@H]3[C@H](F)C(=O)[C@H]4C[C@@H](O)CC[C@]4(C)[C@H]3CC[C@]12C
Selectivity Index [2]: 8.7
IC50 (Vero): 40 µM
MIC90 [1]: 4.6 µM (≈ 1.94 µg/mL)

C[C@H](CCCC(C)(C)O)[C@H]1CC[C@H]2[C@@H]3[C@@H](O)C[C@H]4C[C@@H](O)CC[C@]4(C)[C@H]3CC[C@]12C
Selectivity Index [2]: >5.3
IC50 (Vero): > 128 µM
MIC90 [1]: 24 µM (≈ 10.1 µg/mL)

CC(C)CCC[C@@H](C)[C@H]1CC[C@H]2[C@@H]3[C@H](O)C[C@H]4C[C@@H](O)CC[C@]4(C)[C@H]3CC[C@]12C
MIC90 [1]: > 128 µM

C[C@H](CCCC(C)(C)O)[C@H]1CC[C@H]2[C@@H]3CC=C4C[C@@H](O)CC[C@]4(C)[C@H]3CC[C@]12C
IC50 (Vero): > 128 µM
MIC90 [1]: > 128 µM

C[C@@H](CO)CCC[C@@H](C)[C@H]1[C@@H](O)C[C@H]2[C@@H]3CC=C4C[C@@H](O)CC[C@]4(C)[C@H]3CC[C@]12C
Selectivity Index [2]: >21
IC50 (Vero): > 128 µM
MIC90 [1]: 6 µM (≈ 2.51 µg/mL)

CC(=O)O[C@H]1CC[C@@]2(C)[C@@H](CC(=O)[C@@H]3[C@@H]2CC[C@]2(C)[C@@H]([C@H](C)CCCC(C)(C)O)CC[C@@H]32)C1
IC50 (Vero): > 128 µM
MIC90 [1]: > 128 µM

CC(C)CCC[C@@H](C)[C@H]1CC[C@H]2[C@@H]3C(=O)C=C4C[C@@H](O)CC[C@]4(C)[C@H]3CC[C@]12C [7-OXOCHOLESTEROL]
Selectivity Index [2]: <0.6
IC50 (Vero): 75 µM
MIC90 [1]: > 128 µM

CO[C@H]1/C=C/O[C@@]2(C)Oc3c(C)c(O)c4c(O)c(c(/C=N/N5CCN(C)CC5)c(O)c4c3C2=O)NC(=O)/C(C)=C\C=C\[C@H](C)[C@H](O)[C@@H](C)[C@@H](O)[C@@H](C)[C@H](OC(C)=O)[C@@H]1C [RIFAMPIN]
MIC90 [1]: 0.07 µM (≈ 0.0576 µg/mL)

CC(C)CCC[C@@H](C)[C@H]1CC[C@H]2[C@@H]3C(=O)C[C@H]4C[C@@H](O)CC[C@]4(C)[C@H]3CC[C@]12C
Selectivity Index [2]: 7.8
IC50 (Vero): 62 µM
MIC90 [1]: 8 µM (≈ 3.22 µg/mL)

CC(C)CCC[C@@H](C)[C@H]1CC[C@H]2[C@@H]3[C@@H](O)C[C@H]4C[C@@H](O)CC[C@]4(C)[C@H]3CC[C@]12C
MIC90 [1]: > 128 µM

NNC(=O)c1ccncc1 [ISONIAZID]
Selectivity Index [2]: >320
IC50 (Vero): > 128 µM
MIC90 [1]: 0.4 µM (≈ 0.0549 µg/mL)
